Laboratory results from PMC4280898, “Diazido Mixed-Amine Platinum(IV) Anticancer Complexes Activatable by Visible-Light Form Novel DNA Adducts” (Chemistry (Weinheim an Der Bergstrasse, Germany), 2013).
Values joined by “and” are separate entries in the source; they are usually repeats but may differ in a detail not shown here. Identical values can stand only once.

Assays:
[1] = tested on: 212 bp NdeI–HpaI fragment of pSP73KB DNA; test: Transcription mapping of DNA adducts (T7 RNA polymerase); type: biochemical; details: in the dark; rb=0.01
Experimental: Sequence preference of DNA adducts: Transcription mapping experiments were performed to determine the DNA binding sites for Pt complexes. The experiments were carried out using a linear 212 bp DNA fragment (sequence in Figure 9 B), randomly modified by transplatin (8), cisplatin (7), 5 or 6 in the dark or by 1 and 2 photoactivated with blue light (420 nm) at rb=0.01 (rb is defined as the number of the molecules of platinum complex coordinated per nucleotide residue), for RNA synthesis by T7 RNA polymerase (Figure 9 A, lanes 8, 7, 5, 6, 1 and 2, respectively). RNA synthesis on the template modified by the platinum complexes produced fragments of defined sizes (Figure 9 A), which indicate the sites where RNA synthesis was prematurely terminated. It should be noted that RNA synthesis by T7 RNA polymerase is prematurely terminated only due to the platinum adducts on the template strand.[23] […] The ability to bind to A and C sites is consistent with the result from AMP and CMP binding experiments (Figure S18 in the Supporting Information).
Figure 9 Inhibition of RNA synthesis by T7 RNA polymerase on the NdeI–HpaI fragment of pSP73KB plasmid DNA modified by complexes 5 or 6, cisplatin (7) or transplatin (8) in the dark, or with photoactivated 1 or 2 (420 nm light). A) Autoradiogram of a polyacrylamide (6 %)/urea (8 M) sequencing gel. […]
assayed by differential pulse polarography for free, unbound platinum.[16] The amount of platinum bound to DNA was calculated by subtracting the amount of free (unbound) platinum from the total amount of platinum present in the reaction. […]
This fragment contained T7 RNA polymerase promoter (in the upper strand close to its 3'-end). […] The fragments produced in RNA synthesis on the template modified by the platinum complexes were analysed by a 6% polyacrylamide/8M urea sequencing gel.
Quantification of DNA adducts […]
(§1) Platinum associated with DNA was assessed by flameless atomic absorption […]
(§2) Quantification of DNA interstrand cross-links […]

A2780cis cells = test: SRB proliferation assay for non-light-sensitive complexes, A2780cis; type: cell-based, human; details: for Resistance factor: A2780cis vs A2780, SRB assay; for IC50: ambient light, 24 h exposure, 72 h recovery, SRB
Experimental: (§3) Cytotoxicity of platinum(II) precursors: To investigate the relationship between the Pt^IV diazidodihydroxido complexes and their Pt^II dichlorido analogues trans-[PtCl2(Am1)(Am2)] (where Am=amine), the cytotoxicities of complexes trans-[PtCl2(MA)(Py)] (5) and trans-[PtCl2(MA)(Tz)] (6) towards A2780 and its cisplatin resistant sub-line A2780cis were determined. The toxicity was not photoinduced, as the complexes are not photoactive. Complexes 5 and 6 are highly cytotoxic towards A2780 and A2780cis cells compared to the reported trans-Pt^II compounds.[18]–[22] Complex 5 is about three-times more cytotoxic than complex 6 towards A2780 cells. […]
(§4) Cell Culture and Proliferation Assay for Non-light-sensitive Complexes
(§5) The A2780 ovarian cell line was obtained from the ECACC (European Collection of Animal Cell Culture, Salisbury, United Kingdom). The cells were maintained in RPMI 1640 media, which was supplemented with 10% foetal calf serum, 1% L-glutamine, and 1% penicillin/streptomycin. All cells were grown at 310 K in an humidified atmosphere containing 5% CO2. Stock solutions of the Pt complexes were freshly prepared in DMSO to assist dissolution and then diluted into saline and medium (maximum final concentration of DMSO 1% and saline 6%). After plating 5000 A2780 cells per well on day 1, Pt complexes were added to the cancer cells on day 3 at concentrations ranging from 0.01 to 100 µM, depending on the preliminary activity data obtained in screening assays. Cells were exposed to the complexes for 24 h, washed with PBS, supplied with fresh medium, and allowed to grow for three doubling times (72 h), and then the protein content (proportional to cell survival) was measured using the sulforhodamine B (SRB) assay.[7] The standard errors are based on two independent experiments of three replicates each.[8]

calf thymus DNA = test: Characterisation of DNA adducts with thiourea; type: binding; details: in the dark; for Total adducts displaced from DNA by thiourea after 24 h: 10 mM thiourea; for Bifunctional adducts after 24 h: thiourea probe
Experimental: Characterisation of DNA adducts: The experiments aimed at the characterisation of DNA adducts of photoactivated 1 or 2, and of 5 or 6 in the dark were conducted employing thiourea as a probe of DNA monofunctional adducts of trans-platinum(II) compounds[24] (for details, see the Supporting Information). After 24 h, 55(±10), 48(±2), 66(±1) and 64(±3) % of the total adducts of platinum complexes 1, 2, 5 and 6, respectively, were displaced from DNA by thiourea (Figure 10). Thus, only 45, 52, 34 and 36 % of DNA adducts formed by 1 or 2 (photoactivated) and 5 or 6 (in the dark), respectively, had evolved to bifunctional lesions after this time interval.
Figure 10 Quantification of DNA adducts by thiourea. Dependence of rb on incubation time for calf thymus DNA modified by photoactivated: A) 1, or B) 2 (420 nm light); and in the dark with: C) 5, or D) 6. Reactions were stopped with thiourea (10 mM; 10 min, 310 K; ▴) or without thiourea (▪), and the platinum associated with DNA was assessed. […]
assayed by differential pulse polarography for free, unbound platinum.[16] The amount of platinum bound to DNA was calculated by subtracting the amount of free (unbound) platinum from the total amount of platinum present in the reaction.
Transcription mapping of DNA adducts in vitro
The 212-bp DNA fragment used was yielded from cutting of pSP73KB DNA by NdeI and HpaI restriction endonucleases (a substantial part of the nucleotide sequence is […]
This fragment contained T7 RNA polymerase promoter (in the upper strand close to its 3'-end). This linear DNA fragment was randomly modified by transplatin (8), cisplatin (7), 5 and 6 in the dark and by 1 and 2 photoactivated with 420 nm light at rb = 0.01, for RNA synthesis by T7 RNA polymerase. The fragments produced in RNA synthesis on the template modified by the platinum complexes were analysed by a 6% polyacrylamide/8M urea sequencing gel.
Quantification of DNA adducts
Double-helical calf thymus DNA at a concentration of 32 µg/mL was incubated with 5 or 6 in the dark, or alternatively, DNA mixed with 1 or 2 was irradiated for 30min (λirrad = 420 nm) and then incubated in the dark in 10 mM NaClO4 at 310 K. At various time intervals the aliquots were withdrawn and the platination reaction was stopped by addition of 10 mM thiourea, samples were incubated for 10 min at […] and then quickly cooled to 253 K. In parallel experiments, 100 mM NaCl was added to the samples instead of thiourea and samples were immediately cooled to 253 K.
as §1, §2

A2780 cells = test: SRB proliferation assay for non-light-sensitive complexes, A2780; type: cell-based, human; details: ambient light, 24 h exposure, 72 h recovery
Experimental: as §3, §4, §5

SMILES | Sequence specificity [1] | Resistance factor (A2780cis cells) | IC50 (A2780cis cells) | Total adducts displaced from DNA by thiourea after 24 h (calf thymus DNA) | Bifunctional adducts after 24 h (calf thymus DNA) | IC50 (A2780 cells)
C[NH2+][Pt@SP3-2]([Cl])([Cl])[n+]1ccccc1 [Complex 5, trans-[PtCl2(MA)(Py)]] | stop sites mainly at G and C and G, C | 1.25 | 3 ± 0.7 µM | 66(±1) % | 34% and 34±1% | 2.4 ± 0.7 µM
C[NH2+][Pt@SP3-2]([Cl])([Cl])[n+]1ccsc1 [Complex 6, trans-[PtCl2(MA)(Tz)]] | stop sites mainly at G and C and G, C | 1.0 | 6.8 ± 0.9 µM | 64(±3) % | 36% and 36±2% | 6.9 ± 2.3 µM
